Test results published in paper PMC11901902, “Design, Synthesis, and Cytotoxicity Evaluation of Novel Indolin-2-One Based Molecules on Hepatocellular Carcinoma HepG2 Cells as Protein Kinase Inhibitors” (Molecules, 2025).
Read-outs that look alike come from different tables or passages of the source.

Legend:
MCF-7 cells = assay: MTT cytotoxicity assay on MCF-7 cells; type: cell-based; settings: Homo sapiens, MCF7; for viability at 1.25 µM: MCF-7, 1.25 µM; for viability at 2.5 µM: MCF-7, 2.5 µM; for viability at 5 µM: MCF-7, 5 µM; for viability at 10 µM: MCF-7, 10 µM; for viability at 20 µM: MCF-7, 20 µM; for viability at 40 µM: MCF-7, 40 µM; for viability at 80 µM: MCF-7, 80 µM; for viability at 160 µM: MCF-7, 160 µM
Protocol: (§1) Cytotoxic activity of the synthesized compounds was evaluated against HepG-2 and MCF-7 cancer cell lines using the MTT assay. The tested cell lines were obtained from the American Type Culture Collection (ATCC, […], USA) through the Tissue Culture Unit, The Egyptian Organization for Biological Products and Vaccines (Vacsera, Giza, Egypt). Indirubin, chemicals, and solvents were purchased from Sigma-Aldrich (St. Louis, MO, USA). The cells were grown on RPMI-1640 medium supplemented with 10% inactivated fetal calf serum and 50 µg/mL gentamycin. The cells were maintained at 37 °C in a humidified atmosphere with 5% CO2 and were sub-cultured two to three times per week. For antitumor assays, the tumor cell lines were suspended in the medium at concentration 5 × 10^4 cell/well in Corning® 96-well tissue culture plates (Corning, Corning, NY, USA), then incubated for 24 h. The tested molecules were then added to 96-well plates (six replicates) to achieve six concentrations for each compound. Six vehicle controls with media or 0.5% DMSO were run for each 96-well plate as a control. After incubating for 24 h, the numbers of viable cells were determined by the MTT test. Briefly, the media was removed from the 96 well plate and replaced with 100 µL of fresh culture RPMI 1640 medium without phenol red then 10 µL of the 12 mM MTT stock solution (5 mg of MTT in 1 mL of PBS) to each well including the untreated controls. The 96-well plates were then incubated at 37 °C and 5% CO2 for 4 h. An 85 µL aliquot of the media was removed from the wells, and 50 µL of DMSO was added to each well, mixed thoroughly with the pipette, and incubated at 37 °C for 10 min. Then, the optical density was measured at 590 nm with the microplate reader (SunRise, TECAN, Inc., Morrisville, NC, USA) to determine the number of viable cells, and the percentage of viability was calculated as […], where ODt is the mean optical density of wells treated with the tested sample and ODc is the mean optical density of untreated cells. The relation between surviving cells and drug concentration was plotted to obtain the survival curve of each tumor cell line after treatment with the specified compound. […] Each concentration was repeated four times.

HepG-2 cells = assay: MTT cytotoxicity assay on HepG-2 cells; type: cell-based, human; settings: Homo sapiens, HepG2; for viability at 1.25 µM: HepG-2, 1.25 µM; for viability at 1.25 µM / viability at 2.5 µM / viability at 5 µM / viability at 10 µM / viability at 20 µM / viability at 40 µM / viability at 80 µM / viability at 160 µM: Table S1; for viability at 2.5 µM: HepG-2, 2.5 µM; for viability at 5 µM: HepG-2, 5 µM; for viability at 10 µM: HepG-2, 10 µM; for viability at 20 µM: HepG-2, 20 µM; for viability at 40 µM: HepG-2, 40 µM; for viability at 80 µM: HepG-2, 80 µM; for viability at 160 µM: HepG-2, 160 µM; for IC50: MTT, 24 h treatment, mean of three experiments ± SEM
Protocol: as §1

[1] = MTT, 24 h treatment, mean of three experiments ± SEM, read-out: IC50 (µM) MCF-7
[2] = Table S2, read-out: IC50 (µM) on MCF-7 cell line

SMILES	viability at 1.25 µM (MCF-7 cells; Table S2)	viability at 2.5 µM (MCF-7 cells; Table S2)	viability at 5 µM (MCF-7 cells; Table S2)	viability at 10 µM (MCF-7 cells; Table S2)	viability at 20 µM (MCF-7 cells; Table S2)	viability at 40 µM (MCF-7 cells; Table S2)	viability at 80 µM (MCF-7 cells; Table S2)	viability at 160 µM (MCF-7 cells; Table S2)	IC50 (MCF-7 cells; [1])	viability at 1.25 µM (HepG-2 cells)	viability at 2.5 µM (HepG-2 cells)	viability at 5 µM (HepG-2 cells)	viability at 10 µM (HepG-2 cells)	viability at 20 µM (HepG-2 cells)	viability at 40 µM (HepG-2 cells)	viability at 80 µM (HepG-2 cells)	viability at 160 µM (HepG-2 cells)	IC50 (HepG-2 cells)	IC50 (MCF-7 cells; [2])
O=C1Nc2ccccc2C1=Nc1ccc2nc[nH]c(=O)c2c1 [Compound 7, 6-(2-Oxo-1,2-dihydro-indol-3-ylideneamino)-3H-quinazolin-4-one]	101 ± 7.2%	93.7 ± 8.2%	87.6 ± 6.1%	78.2 ± 5.3%	66.3 ± 4%	53.1 ± 2%	45.2 ± 1.4%	36.8 ± 1.2%	21.9 ± 1.83 µM	83.4 ± 6.9%	70.9 ± 6%	61.9 ± 5.1%	49.3 ± 2.2%	35.9 ± 2.1%	26.5 ± 1.9%	9.4 ± 0.4%	7.2 ± 0.2%	10.8 ± 0.92 µM	
O=C1Nc2ccc(F)cc2/C1=N/c1ccc2nc[nH]c(=O)c2c1 [Compound 8, 6-(5-Flouro-2-oxo-1,2-dihydro-indol-3-ylideneamino)-3H-quinazolin-4-one]	104 ± 4.9%	94.2 ± 4%	87.9 ± 3.9%	75.7 ± 3.2%	57.1 ± 2.4%	43.9 ± 2%	29.7 ± 1.4%	11.5 ± 0.7%	52.8 ± 3.21 µM	88 ± 7.6%	71.2 ± 6.1%	62.3 ± 4.3%	48.2 ± 1.8%	33.6 ± 0.13%	17.5%	15.1 ± 1.4%	9.3 ± 1.1%	7.54 ± 0.53 µM	
O=C1Nc2ccc(Br)cc2C1=Nc1ccc2nc[nH]c(=O)c2c1 [Compound 10, 6-(5-Bromo-2-oxo-1,2-dihydro-indol-3-ylideneamino)-3H-quinazolin-4-one]	98.3 ± 7.4%	99.1 ± 6.9%	87.2 ± 5.7%	76.5 ± 4%	65.2 ± 2.8%	55.4 ± 2.6%	41.2 ± 2.8%	25.4 ± 2.6%	> 100 µM	91.2 ± 7%	87.9 ± 8.1%	83 ± 5.2%	71.4 ± 4.5%	58.7 ± 4.3%	35.8 ± 2.1%	19.4 ± 1.2%	14.2 ± 0.9%	28.1 ± 2.08 µM	112 ± 11.2 µM
O=C1Nc2ccc([N+](=O)[O-])cc2C1=Nc1ccc2nc[nH]c(=O)c2c1 [Compound 11, 6-(5-Nitro-2-oxo-1,2-dihydro-indol-3-ylideneamino)-3H-quinazolin-4-one]	116 ± 6.4%	97.5 ± 7%	90.1 ± 6.4%	86 ± 5.5%	63.9 ± 3.8%	39.1 ± 2.9%	25.6 ± 1.3%	11.2 ± 0.4%	72.4 ± 6.51 µM	99.2 ± 6.9%	91.3 ± 7.9%	89.4 ± 6.4%	79.5 ± 5.5%	67.1 ± 3.8%	54.6 ± 1.9%	44.1 ± 1.3%	37.6 ± 1.1%	20.9 ± 1.54 µM	
Cc1ccc2c(c1)C(=Nc1ccc3nc[nH]c(=O)c3c1)C(=O)N2 [Compound 12, 6-(5-Methyl-2-oxo-1,2-dihydro-indol-3-ylideneamino)-3H-quinazolin-4-one]	104 ± 5.4%	91.4 ± 4.1%	80 ± 4.2%	69.2 ± 2.7%	58.5 ± 1.5%	30.1 ± 1.2%	21.5 ± 1.5%	9.15 ± 1.2%	46.2 ± 2.47 µM	96.4 ± 6.9%	84.9 ± 6.1%	81.8 ± 5.4%	69.1 ± 4.1%	58.9 ± 2.2%	49.7 ± 1.7%	36.3 ± 0.5%	33.9 ± 1.2%	31.9 ± 2.12 µM	
COc1ccc2c(c1)C(=Nc1ccc3nc[nH]c(=O)c3c1)C(=O)N2 [Compound 13, 6-(5-Methoxy-2-oxo-1,2-dihydro-indol-3-ylideneamino)-3H-quinazolin-4-one]	109 ± 7.3%	108 ± 7.4%	99.6 ± 6.5%	87.6 ± 4.6%	71.9 ± 3.2%	67.6 ± 2.7%	60.8 ± 1.5%	56.8 ± 0.9%	> 100 µM	88.2 ± 7.4%	86.5%	75.9 ± 4.6%	61.5 ± 3.2%	40.9 ± 2.7%	26.6 ± 1.5%	7.9 ± 0.9%	3.9 ± 0.3%	18.9 ± 1.05 µM	123 ± 13.2 µM
O=C1Nc2ccccc2C1=Nc1ccc(-c2nc3ccccc3c(=O)[nH]2)cc1 [Compound 18, 2-[4-(2-Oxo-1,2-dihydro-indol-3-ylideneamino)-phenyl]-3H-quinazolin-4-one]	109 ± 6.2%	92 ± 6.8%	94.2 ± 5.8%	80.8 ± 4.9%	84.8 ± 2.9%	83.8 ± 2.8%	74.3 ± 1.2%	67.9 ± 0.8%	> 100 µM	78 ± 7.2%	75.6 ± 6.8%	73.5 ± 5.8%	55.9 ± 4.1%	40.4 ± 2.9%	24.9 ± 2.8%	4.54 ± 0.23%	1.95 ± 0.19%	82.4 ± 7.17 µM	143 ± 16.2 µM
